Test results reported in patent publication US10786580B2, “Cholecystokinin 2 receptor targeted NIR imaging and use thereof” (On Target Laboratories, LLC, priority 2016, dated 2020).
pKd: −log10 of the molar value. Where two headings read alike, the source gives them in different places.

Key:
[1] = test system: HEK-CCK2R tumor xenograft; assay: Whole-body imaging and ex vivo tissue biodistribution in mice bearing HEK-CCK2R tumor xenografts
Procedure: (§1) FIG. 2A illustrates the overlay of whole body fluorescence image over white light images after adjusting the threshold for compound 40. HEK-CCK2R tumor xenograft bearing mice were injected with 10 nmol of compound 1 and imaged with IVIS imager (ex=745 nm, em=ICG, exposure time=1 s) at 2 h post-injection. After imaging, selected tissues were harvested, and tissues were imaged with IVIS imager (ex=745 nm, em=ICG, exposure time=1 s).
as §1, with “FIG. 2C depicts” for “FIG. 2A illustrates”, “compound 41.” for “compound 40.”, “[…]” for “compound 1”
as §1, with “FIG. 5A” for “FIG. 2A”, “the analysis of compound 21” for “the”, “the threshold.” for “the threshold for compound 40.”, “of 21” for “of compound 1”
FIG. 9 depicts a head-to-head comparison of fluorescence in the tumors from the mice injected with CCK2R-targeted-NIR dye compounds 21, 40-44. Overlay of tumor fluorescence image over white light images. HEK-CCK2R tumor xenograft bearing mice were injected with 10 nmol of requisite compound and imaged with IVIS imager at 2 h post-injection. After imaging, tumor tissues were harvested, and imaged with IVIS imager (ex=745 nm, em=ICG, exposure time=1 s).
FIG. 14E depicts the in vivo efficacy and specificity of 21 by whole-body imaging with nude mice bearing HEK-CCK2R tumors.
FIG. 14F depicts the ex vivo tissue biodistribution of mice of FIG. 14E dissecting after whole-body imaging.
Athymic female nude (nu/nu) mice (5 weeks old, 18-20 g) were purchased from Envigo (Indianapolis, Ind.) and maintained on normal rodent diet (Teklad, Wis.). Animals were housed 5/cage in a barrier, pathogen-free cloaked rack. Autoclaved tap water and food were given as needed. The animals were housed in a sterile environment on a standard 12 hour light-dark cycle for the duration of the study. […]
six-weeks-old female nu/nu mice were inoculated subcutaneously with HEK-CCK2 cells (5.0×10^6/mouse in 50% high concentrated matrigel in GIBCO medium) on the shoulder. Growth of the tumors was measured in perpendicular directions every 2 days using a caliper (body weights were monitored on the same schedule), and the volumes of the tumors were calculated as 0.5×L×W^2 (L=longest axis and W=axis perpendicular to L in millimeters). […]

[2] = test system: HEK-CCK2 cells; assay: Epi-fluorescence microscopy of binding to CCK2R expressing HEK cells; format: cell-based, human; conditions: FIGS. 14c & d
Procedure: (§2) HEK-CCK2 cells (a human embryonic kidney cells transfected with CCK2 receptor) were a kind gift from Dr. Mark Hellmich (University of Texas Medical Branch, Galveston, Tex.) and grown as a monolayer using Dulbecco's Modified Eagles Medium (GIBCO) (Gibco, NY) 10% heat-inactivated fetal bovine serum (Atlanta Biological, GA) and 1% penicillin streptomycin (Gibco, NY) in a 5% carbon dioxide: 95% air-humidified atmosphere at 37° C. for at least six passages before they were used for the assays.

[3] = Excitation and emission spectra; format: physicochemical; conditions: FIG. 12
Text: FIG. 12 depicts the chemical structure, excitation and emission spectra of compound 21 (OTL81).

[4] = molecular target: T1, CCK2R (Homo sapiens, UniProt P32239); assay: In vitro binding of CCK2R-NIR compounds to HEK-CCK2R cells (cell bound fluorescence); design: expressed in transfected cells; host or cells: HEK (human embryonic kidney) cells, HEK-CCK2R, gift from Dr. Mark Hellmich (UTMB); conditions: for pKd: 1 h at 37° C.
T1 sequence (P32239 1-447): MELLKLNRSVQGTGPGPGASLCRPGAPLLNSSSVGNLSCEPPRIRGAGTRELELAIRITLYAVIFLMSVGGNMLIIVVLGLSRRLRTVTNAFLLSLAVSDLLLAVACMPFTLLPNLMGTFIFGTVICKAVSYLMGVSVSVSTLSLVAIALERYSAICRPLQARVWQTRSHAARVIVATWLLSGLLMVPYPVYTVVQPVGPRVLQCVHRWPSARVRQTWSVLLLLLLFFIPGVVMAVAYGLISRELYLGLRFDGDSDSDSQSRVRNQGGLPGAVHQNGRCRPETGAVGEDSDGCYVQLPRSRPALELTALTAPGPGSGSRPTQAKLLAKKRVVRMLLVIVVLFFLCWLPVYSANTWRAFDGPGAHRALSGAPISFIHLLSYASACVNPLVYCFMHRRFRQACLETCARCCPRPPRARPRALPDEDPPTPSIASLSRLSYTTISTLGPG
Procedure: (§3) FIG. 4 depicts the binding affinities of CCK2R-NIR compounds 21, 42-44 to CCK2R. CCK2R-positive HEK-CCK2R cancer cells were incubated for 1 h at 37° C. with increasing concentrations of compounds. Media was then removed, washed with fresh media three times, and replaced with PBS. Cell bound fluorescence was assayed as using fluorometer.
CCK2R-positive HEK-CCK2R cancer cells were incubated for 1 h at 37° C. with increasing concentrations of compounds. Media was then removed, washed with fresh media three times, and replaced with PBS. Cell bound fluorescence was assayed as using fluorometer.
as §3, with “13 illustrates” for “4 depicts”, “affinity” for “affinities”, “of” for “of CCK2R-NIR”, “[…]” for “21, 42-44”, “compound 21.” for “compounds.”
as §2
HEK cells that overexpress CCK2 were seeded into a T75 flask and allowed to form a monolayer over 48 h. After trypsin digestion, release cells were transferred into centrifuge tubes (1×10^6 cells/tube) and centrifuged. The medium was replaced with fresh medium containing increasing concentration of requisite CCK2R-Ligand-NIR dye compound in the presence or absence of 100-fold excess the ligand, a high affinity CCK2 receptor antagonist, and incubated for 1 h at 37° C. After rinsing with fresh medium (2×1.0 mL) and PBS (1×1.0 mL), cells were resuspended in PBS (1.0 mL) and cell bound fluorescence was analyzed (100,000 cells/sample) using a fluorometer (Cary, Agilent). The relative binding affinities were calculated using a plot of % cell bound fluorescence versus the log concentration of the test article using GraphPad Prism 4.

[5] = FIG. 14, mice bearing HEK-CCK2R tumor xenografts

pKd ([4]; FIG. 13, HEK-CCK2R cells, read-out: dissociation constant (KD)): 9.00 | pKd ([4]; Table 1, CCK2R-positive HEK-CCK2R cancer cells, read-out: KD): 9.17 | affinity for CCK2R (in words) ([4]; in vitro binding affinity data, HEK-CCK2R cells): very high affinity
SMILES: CC(C)(C)C(=O)CN1C(=O)[C@H](NC(=O)Nc2cccc(C(=O)N[C@H](CCC(=O)N[C@@H](Cc3ccc(OC4=C(/C=C/C5=[N+](CCCCS(=O)(=O)[O-])c6ccc(S(=O)(=O)O)cc6C5(C)C)CCC/C4=C\C=C4\N(CCCCS(=O)(=O)O)c5ccc(S(=O)(=O)O)cc5C4(C)C)cc3)C(=O)O)C(=O)O)c2)CN(C2CCCCC2)c2ccccc21 [Compound 21, 4-(2-((E)-2-((E)-2-(4-((S)-2-carboxy-2-((R)-4-carboxy-4-(3-(3-((R)-5-cyclohexyl-1-(3,3-dimethyl-2-oxobutyl)-2-oxo-2,3,4,5-tetrahydro-1H-benzo[b][1,4]diazepin-3-yl)ureido)benzamido)butanamido)ethyl)phenoxy)-3-(2-((E)-3,3-dimethyl-5-sulfo-1-(4-sulfobutyl)indolin-2-ylidene)ethylidene)cyclohex-1-en-1-yl)vinyl)-3,3-dimethyl-5-sulfo-3H-indol-1-ium-1-yl)butane-1-sulfonate]
fluorescence intensity in the tumors ([1]; 10 nmol, 2 h post-injection): very high fluorescence intensity | tumor uptake, head-to-head comparison ([1]; FIG. 9, 10 nmol, 2 h post-injection, compounds 21, 40-44): highest tumor uptake | tissue uptake (whole-body imaging and ex vivo biodistribution) [1, 5]: solely taken up in CCK2R positive tumors with no accumulation in other tissues | tumor-to-background ratio [1, 5]: very high | labelling of HEK-CCK2 cells [2]: efficiently label | Stokes shift [3]: 20 nm | emission wavelength [3]: 796 nm | excitation wavelength [3]: 776 nm
